IC50 data for 20 compounds are collected here from patent US11878965B2, “Inhibitors of peptidylarginine deiminases” (Gilead Sciences, Inc., priority 2020, dated 2024).

The term IC50 denotes the concentration at which inhibition is half-maximal.

One experiment deals with human PAD4 (Homo sapiens (Human), UniProt Q9UM07). The experiment is described as follows: In Vitro PAD4 BAEE Biochemical Assay. As to conditions: human PAD4, BAEE substrate; 5 nM PAD4, 2 mM calcium chloride, 3 mM BAEE; geometric mean of multiple experiments. Put shortly: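 Deimination of BAEE substrate (3 mM) measured as ammonia via o-phthalaldehyde–DTT isoindole fluorescence, 405/535 nm. Tag-free bacterially expressed human PAD4 at 5 nM with 2 mM calcium chloride, pH 7.6 MOPS buffer, 30 min compound preincubation then 2 h reaction, both at 25 °C.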
human PAD4, sequence (Q9UM07 2-663): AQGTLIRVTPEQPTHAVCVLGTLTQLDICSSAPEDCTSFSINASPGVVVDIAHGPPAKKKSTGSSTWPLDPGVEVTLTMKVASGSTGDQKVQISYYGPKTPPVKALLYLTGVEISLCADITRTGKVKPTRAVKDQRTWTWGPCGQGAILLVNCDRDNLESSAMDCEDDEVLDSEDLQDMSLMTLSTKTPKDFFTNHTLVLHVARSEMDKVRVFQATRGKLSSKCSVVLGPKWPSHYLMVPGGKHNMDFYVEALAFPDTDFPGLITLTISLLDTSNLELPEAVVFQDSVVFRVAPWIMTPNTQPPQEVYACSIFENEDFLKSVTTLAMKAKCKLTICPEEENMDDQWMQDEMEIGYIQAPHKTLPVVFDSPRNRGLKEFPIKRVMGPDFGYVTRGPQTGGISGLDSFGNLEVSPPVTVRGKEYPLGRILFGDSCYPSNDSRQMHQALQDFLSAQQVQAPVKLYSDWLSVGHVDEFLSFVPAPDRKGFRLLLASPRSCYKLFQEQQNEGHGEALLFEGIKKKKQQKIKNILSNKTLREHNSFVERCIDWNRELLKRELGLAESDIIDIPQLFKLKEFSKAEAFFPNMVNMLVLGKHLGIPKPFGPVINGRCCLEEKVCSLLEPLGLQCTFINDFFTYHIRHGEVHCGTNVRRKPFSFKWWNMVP
Turning to `COc1cc(C(=O)N2CC3CCC3(N)C2)cc2nc(-c3cc4ccc(N(C(F)F)S(C)(=O)=O)nc4n3CC3CC3)n(C)c12` (centres unmarked) [Example 78, N-(2-(5-(1-amino-3-azabicyclo[3.2.0]heptane-3-carbonyl)-7-methoxy-1-methyl-1H-benzo[d]imidazol-2-yl)-1-(cyclopropylmethyl)-1H-pyrrolo[2,3-b]pyridin-6-yl)-N-(difluoromethyl) methanesulfonamide], the IC50 is 655 nM. Regarding `COc1cc(C(=O)N2C[C@H](N)CCN2C)cc2nc(-c3cc4ccc([C@@H](C)NC(=O)c5nccc(C)n5)nc4n3CC3CC3)n(C)c12` [Example 181, N-((R)-1-(2-(5-((R)-5-amino-2-methylhexahydropyridazine-1-carbonyl)-7-methoxy-1-methyl-1H-benzo[d]imidazol-2-yl)-1-(cyclopropylmethyl)-1H-pyrrolo[2,3-b]pyridin-6-yl)ethyl)-4-methylpyrimidine-2-carboxamide], the IC50 stood at 74.9 nM. Take `COc1cc(C(=O)N2[C@H]3CC[C@@H]2[C@H](N)C3)cc2nc(-c3cc4ccc([C@H]5CCCN5C(=O)C(C)(C)C)nc4n3CC3CC3)n(C)c12` [Example 246, 1-((R)-2-(2-(5-((1R,2R,4S)-2-amino-7-azabicyclo[2.2.1]heptane-7-carbonyl)-7-methoxy-1-methyl-1H-benzo[d]imidazol-2-yl)-1-(cyclopropylmethyl)-1H-pyrrolo[2,3-b]pyridin-6-yl)pyrrolidin-1-yl)-2,2-dimethylpropan-1-one]: the IC50 was found to be 48.4 nM.

Consider `COc1cc(C(=O)N2C[C@H](N)CC[C@@H]2C)cc2nc(-c3cc4ccc(-c5cccnc5-c5cncs5)nc4n3CC3CC3)n(C)c12` [Example 267, ((2S,5R)-5-amino-2-methylpiperidin-1-yl)(2-(1-(cyclopropylmethyl)-6-(2-(thiazol-5-yl)pyridin-3-yl)-1H-pyrrolo[2,3-b]pyridin-2-yl)-7-methoxy-1-methyl-1H-benzo[d]imidazol-5-yl)methanone], for which the IC50 was 138 nM. On the same count and under the same terms, as for `COc1cc(C(=O)N2CCC[C@@H](N)C2)cc2nc(-c3cc4ccc(N(C)S(C)(=O)=O)cc4n3CC3CC3)n(C)c12` [Example 2, (R)-N-(2-(5-(3-aminopiperidine-1-carbonyl)-7-methoxy-1-methyl-1H-benzo[d]imidazol-2-yl)-1-(cyclopropylmethyl)-1H-indol-6-yl)-N-methylmethanesulfonamide], the figure is 210 nM; as for `COc1cc(C(=O)N2C[C@H](N)CCN2C)cc2nc(-c3cc4ccc([C@@H](C)NC(=O)C5(C(F)(F)F)CC5)nc4n3CC3CC3)n(C)c12` [Example 192, N-((R)-1-(2-(5-((R)-5-amino-2-methylhexahydropyridazine-1-carbonyl)-7-methoxy-1-methyl-1H-benzo[d]imidazol-2-yl)-1-(cyclopropylmethyl)-1H-pyrrolo[2,3-b]pyridin-6-yl)ethyl)-1-(trifluoromethyl)cyclopropane-1-carboxamide], 174 nM; as for `COc1cc(C(=O)N2C[C@H](N)CC[C@@H]2C)cc2nc(-c3cc4ccc(C(=O)N(C)C)nc4n3CC3CC3)n(C)c12` [Example 250, 2-(5-((2S,5R)-5-amino-2-methylpiperidine-1-carbonyl)-7-methoxy-1-methyl-1H-benzo[d]imidazol-2-yl)-1-(cyclopropylmethyl)-N,N-dimethyl-1H-pyrrolo[2,3-b]pyridine-6-carboxamide], 874 nM. Same read-out and setting: as for `COc1cc(C(=O)N2[C@H]3CC[C@@H]2[C@H](N)C3)cc2nc(-c3cc4ccc([C@@H](C)NC(=O)C56CC(F)(C5)C6)cc4n3CC3CC3)n(C)c12` [Example 133, N-((R)-1-(2-(5-((1R,2R,4S)-2-amino-7-azabicyclo[2.2.1]heptane-7-carbonyl)-7-methoxy-1-methyl-1H-benzo[d]imidazol-2-yl)-1-(cyclopropylmethyl)-1H-indol-6-yl)ethyl)-3-fluorobicyclo[1.1.1]pentane-1-carboxamide], the figure is 32.2 nM. With `COc1cc(C(=O)N2C[C@H](N)CCN2C)cc2nc(-c3cc4ccc([C@@H](C)NC(=O)[C@@H](C)c5ccccc5)nc4n3CC3CC3)n(C)c12` [Example 165, (S)-N-((R)-1-(2-(5-((R)-5-amino-2-methylhexahydropyridazine-1-carbonyl)-7-methoxy-1-methyl-1H-benzo[d]imidazol-2-yl)-1-(cyclopropylmethyl)-1H-pyrrolo[2,3-b]pyridin-6-yl)ethyl)-2-phenylpropanamide], the IC50 amounted to 91.4 nM.

In the case of `COc1cc(C(=O)N2[C@H]3CC[C@@H]2[C@H](N)C3)cc2nc(-c3cc4ccc([C@@H](C)NC(=O)c5ccccc5)cc4n3CC3CC3)n(C)c12` [Example 136, N-((R)-1-(2-(5-((1R,2R,4S)-2-amino-7-azabicyclo[2.2.1]heptane-7-carbonyl)-7-methoxy-1-methyl-1H-benzo[d]imidazol-2-yl)-1-(cyclopropylmethyl)-1H-indol-6-yl)ethyl)benzamide], the IC50 was found to be 27.6 nM. As to `COc1cc(C(=O)N2CCC[C@@H](N)C2)cc2nc(-c3cc4ccc(S(=O)(=O)C(C)C)nc4n3CC3CC3)n(C)c12` [Example 254, (R)-(3-aminopiperidin-1-yl)(2-(1-(cyclopropylmethyl)-6-(isopropylsulfonyl)-1H-pyrrolo[2,3-b]pyridin-2-yl)-7-methoxy-1-methyl-1H-benzo[d]imidazol-5-yl)methanone], the IC50 amounted to 550 nM. `COc1cc(C(=O)N2C[C@H](N)CC[C@@H]2C)cc2nc(-c3cc4ccc(-c5c(C)ccnc5-c5sc(C)nc5C)nc4n3CC3CC3)n(C)c12` [Example 269, ((2S,5R)-5-amino-2-methylpiperidin-1-yl)(2-(1-(cyclopropylmethyl)-6-(2-(2,4-dimethylthiazol-5-yl)-4-methylpyridin-3-yl)-1H-pyrrolo[2,3-b]pyridin-2-yl)-7-methoxy-1-methyl-1H-benzo[d]imidazol-5-yl)methanone]: the IC50 was 324 nM.

Take `COc1cccc(F)c1C(=O)N[C@H](C)c1ccc2cc(-c3nc4cc(C(=O)N5[C@H]6CC[C@@H]5[C@H](N)C6)cc(OC)c4n3C3CC3)n(CC3CC3)c2c1` [Example 149, N-((R)-1-(2-(5-((1R,2R,4S)-2-amino-7-azabicyclo[2.2.1]heptane-7-carbonyl)-1-cyclopropyl-7-methoxy-1H-benzo[d]imidazol-2-yl)-1-(cyclopropylmethyl)-1H-indol-6-yl)ethyl)-2-fluoro-6-methoxybenzamide]: the IC50 amounted to 95.4 nM.

Regarding `[2H][C@@]1(N)CCCN(C(=O)c2cc(OC)c3c(c2)nc(-c2cc4ccc(N(C(F)F)S(C)(=O)=O)nc4n2CC2CC2)n3C)C1` [Example 45, (R)-N-(2-(5-(3-aminopiperidine-1-carbonyl-3-d)-7-methoxy-1-methyl-1H-benzo[d]imidazol-2-yl)-1-(cyclopropylmethyl)-1H-pyrrolo[2,3-b]pyridin-6-yl)-N-(difluoromethyl) methanesulfonamide], the IC50 came out at 110 nM. On the same count and under the same terms, as for `COc1cc(C(=O)N2C[C@H](N)CCN2C)cc2nc(-c3cc4ccc([C@@H](C)NC(=O)C5(C(F)F)CC5)nc4n3CC3CC3)n(C)c12` [Example 191, N-((R)-1-(2-(5-((R)-5-amino-2-methylhexahydropyridazine-1-carbonyl)-7-methoxy-1-methyl-1H-benzo[d]imidazol-2-yl)-1-(cyclopropylmethyl)-1H-pyrrolo[2,3-b]pyridin-6-yl)ethyl)-1-(difluoromethyl)cyclopropane-1-carboxamide], the figure is 82.4 nM. On the same count and under the same terms, as for `COc1cc(C(=O)N2C[C@H](N)CCN2C)cc2nc(-c3cc4ccc([C@@H](C)NC(=O)c5nccc(C(F)(F)F)n5)nc4n3CC3CC3)n(C)c12` [Example 182, N-((R)-1-(2-(5-((R)-5-amino-2-methylhexahydropyridazine-1-carbonyl)-7-methoxy-1-methyl-1H-benzo[d]imidazol-2-yl)-1-(cyclopropylmethyl)-1H-pyrrolo[2,3-b]pyridin-6-yl)ethyl)-4-(trifluoromethyl)pyrimidine-2-carboxamide], the figure is 104 nM.

Turning to `COc1cc(C(=O)N2C[C@H](N)CCN2C)cc2nc(-c3cc4ccc([C@@H](C)NC(=O)C(C)(C)C)nc4n3CC3CC3)n(C)c12` [Example 161, N-((R)-1-(2-(5-((R)-5-amino-2-methylhexahydropyridazine-1-carbonyl)-7-methoxy-1-methyl-1H-benzo[d]imidazol-2-yl)-1-(cyclopropylmethyl)-1H-pyrrolo[2,3-b]pyridin-6-yl)ethyl)pivalamide], the IC50 came to 72.3 nM. On the same count and under the same terms, as for `COc1cc(C(=O)N2C[C@H](N)CCN2C)cc2nc(-c3cc4ccc([C@@H](C)NC(=O)c5ccccc5C(F)F)nc4n3CC3CC3)n(C)c12` [Example 166, N-((R)-1-(2-(5-((R)-5-amino-2-methylhexahydropyridazine-1-carbonyl)-7-methoxy-1-methyl-1H-benzo[d]imidazol-2-yl)-1-(cyclopropylmethyl)-1H-pyrrolo[2,3-b]pyridin-6-yl)ethyl)-2-(difluoromethyl)benzamide], the figure is 180 nM.

Still in this experiment, the particulars now being: recombinant PAD4 5 nM, 2 mM calcium chloride, 3 mM BAEE substrate; geometric mean of multiple experiments.
For `COc1cc(C(=O)N2C[C@H](N)[C@@H]3CC[C@H]2C3)cc2nc(-c3cc4ccc([C@@H](C)NC(=O)[C@@H]5CC5(F)F)nc4n3CC3CC3)n(C)c12` [Example 311, (S)-N-((R)-1-(2-(5-((1S,4R,5R)-4-amino-2-azabicyclo[3.2.1]octane-2-carbonyl)-7-methoxy-1-methyl-1H-benzo[d]imidazol-2-yl)-1-(cyclopropylmethyl)-1H-pyrrolo[2,3-b]pyridin-6-yl)ethyl)-2,2-difluorocyclopropane-1-carboxamide], the IC50 is 67.6 nM. On to `COc1cc(C(=O)N2C[C@H](N)[C@@H]3CC[C@H]2C3)cc2nc(-c3cc4ccc([C@@H](C)NC(=O)c5ccc(C(F)F)nc5)nc4n3CC3CC3)n(C)c12` [Example 297, N-((R)-1-(2-(5-((1S,4R,5R)-4-amino-2-azabicyclo[3.2.1]octane-2-carbonyl)-7-methoxy-1-methyl-1H-benzo[d]imidazol-2-yl)-1-(cyclopropylmethyl)-1H-pyrrolo[2,3-b]pyridin-6-yl)ethyl)-6-(difluoromethyl)nicotinamide], for which the IC50 turned out to be 65.9 nM.
